# Reference: US8197858B2, “Bone microenvironment modulated seizure treatments” (priority 2009, dated 2012)
# Experiments:
# [1] = system: tryptophan hydroxylase (TPH); settings: estrogen treated monkey; cited from earlier work
# serum calcium [2] = settings: injections of 4-8 IU/kg (IM or SubQ), most patients; cited from earlier work
# [3] = serum estrogen levels and half life with estradiol transdermal patch in postmenopausal women (Ginsburg et al.); assay type: in vivo; settings: female, human, other: transdermal patch, 0.1 mg, after removal of patch, worked out from mean half life, read-out: terminal half life (converted)
# Source text: Exogenous estrogen can be used to inhibit osteoclast activity and bone resorption by the “triple whammy” previously disclosed, inhibiting osteoclast activity by binding to osteoblasts and 1) increasing their output of OPG and 2) suppressing their RANKL production and 3) prolonging the lives of osteoblasts while simultaneously promoting osteoclast apoptosis. […] The dose is low enough and for a short enough period of time that it should not materially interfere with any of the menstrual processes. Alternatively, the patch may also be cut in half to obtain a half dose (0.05 ng/ml) cushion factor. Estrogen is available in oral, injectable, and patch forms from numerous suppliers and include Estrace, Cenestin, Enjuvia, Femtrace, Gynodiol, Menest etc. . . .
# SERM/Estradiol: If the patient is on birth control, which is basically 3 weeks of estrogen followed by 1 week of sugar pills, the SERM raloxifene could be substituted for the sugar pills. Alternatively, low levels of estrogen could be substituted for one or more of the sugar pills, with the goal of keeping the serum levels around 0.1 ng/ml, without the sharp transition drop, and without the potential for interfering with progression of menstruation. Alternatively, an estrogen patch may be used. […]
# patients with PMS = settings: double blind study; cited from earlier work
# blood calcium levels = settings: more potent than human calcitonin; cited from earlier work
# serum calcium [4] = settings: 7.5 mg/kg, 2 h infusion x3 days; cited from earlier work
# [5] = testosterone levels with Androderm transdermal patch; settings: human, in vivo, other: transdermal patch
# Source text: When androgens such as testosterone bind to osteoblast receptors, the osteoblast is stimulated to form new bone (i.e. move calcium into bone). […] Accordingly, administration of androgens such as testosterone, or administration of endocrine hormones that upregulate indigenous production of androgens (e.g. in males, luteinizing hormone, gonadotropin/luteinizing hormone releasing hormone), can be used to reduce extracellular calcium levels by moving calcium back into bone. Testosterone USP is natural testosterone that has been approved by the United States Pharmacopoeia and is available as a bulk chemical. Testosterone is well-absorbed from transdermal (topical) creams and gels. Dosage forms also include sublingual drops, buccal or sublingual troches or tablet triturates. […] In the form known as Testosterone Cypionate, testosterone can be administered by intramuscular injection every 1-3 weeks. WatsonPharma's Androderm transdermal 2.5 mg or 5 mg testosterone patch provides a more convenient way to administer testosterone, and provides the ability to administer the testosterone over a desired time frame much more precisely (as will be discussed further in representative examples). Androderm patches can ramp up testosterone levels quickly (e.g. 349 ng/dl within 3 hours, 528 ng/dl within 6 hours, when applied to the back) and can be used for up to 24 hours. […]
compound,measurement,setting,value
estrogen,increase in tryptophan hydroxylase (TPH),[1],nine-fold
Calcitonin,drop in serum calcium levels,serum calcium [2],1 to 2 mg/dL
C[C@]12CC[C@@H]3c4ccc(O)cc4CC[C@H]3[C@@H]1CC[C@@H]2O [estradiol],half-life,[3],~9 h
N[C@@H](Cc1cc(I)c(Oc2cc(I)c(O)c(I)c2)c(I)c1)C(=O)O [levothyroxine],benefit over the placebo,patients with PMS,did not show any benefit over the placebo
CC(C)C[C@H](NC(=O)[C@H](CCCCN)NC(=O)CNC(=O)[C@H](CC(C)C)NC(=O)[C@@H](NC(=O)[C@@H]1CSSC[C@H](N)C(=O)N[C@@H](CO)C(=O)N[C@@H](CC(N)=O)C(=O)N[C@@H](CC(C)C)C(=O)N[C@@H](CO)C(=O)N[C@@H]([C@@H](C)O)C(=O)N1)C(C)C)C(=O)N[C@@H](CO)C(=O)N[C@@H](CCC(N)=O)C(=O)N[C@@H](CCC(=O)O)C(=O)N[C@@H](CC(C)C)C(=O)N[C@@H](Cc1c[nH]cn1)C(=O)N[C@@H](CCCCN)C(=O)N[C@@H](CC(C)C)C(=O)N[C@@H](CCC(N)=O)C(=O)N[C@H](C(=O)N[C@@H](Cc1ccc(O)cc1)C(=O)N1CCC[C@H]1C(=O)N[C@@H](CCCNC(=N)N)C(=O)N[C@H](C(=O)N[C@@H](CC(N)=O)C(=O)N[C@H](C(=O)NCC(=O)N[C@@H](CO)C(=O)NCC(=O)N[C@H](C(=O)N1CCC[C@H]1C(N)=O)[C@@H](C)O)[C@@H](C)O)[C@@H](C)O)[C@@H](C)O [salmon calcitonin],potency relative to human calcitonin,blood calcium levels,40-50 times
CC(O)(P(=O)(O)O)P(=O)(O)O [etidronate disodium],duration of efficacy,serum calcium [4],more than a week
C[C@]12CC[C@H]3[C@@H](CCC4=CC(=O)CC[C@@]43C)[C@@H]1CC[C@@H]2O [testosterone],time to return to baseline levels after removal of the patch,[5],3 to 4 h
